Experimental data as given in patent publication US12070452B2, “Compounds targeting HSP110 protein for cancer treatment” (INSERM (Institut National de la Santé et de la Recherche …, priority 2018, dated 2024).

Assays:
[1] = test system: tumor-infiltrating macrophages; assay: Macrophage M1/M2-like markers in tumor slides, CT-26-Balb/c model; assay type: in vivo, mouse
Description: FIG. 8A: Pro-inflammatory M1-like macrophage markers pSTAT1 and NOS2 determined in tumor slides from CT-26-Balb/c mice model. Animals were treated or not every 3 days with the compound 33 (5 mg/Kg) Statistical analysis has been performed by ANOVA (***=p=0.0051). […] FIG. 9A: Anti-inflammatory macrophage M2-like markers Arg1 and pSTAT6 determined in tumor slides from CT-26-Ballb/c mice model. Animals were treated or not every 3 days with the compound 33 (5 mg/Kg). Statistical analysis has been performed by ANOVA (***=p=0.0031). […] Anti-p-STAT1 (1/200; polyclonal, Cell Signaling), anti-SOCS1 (Suppressor of Cytokine Signaling protein 1, 1/200; polyclonal, Santa Cruz), and anti-NOS2 (Nitric Oxide Synthase 2, 1/200; polyclonal Santa Cruz) antibodies were used for M1-like macrophage markers. Anti-pSTAT6 (1/200; polyclonal Santa Cruz), anti-arginase-1 (1/200; polyclonal Santa Cruz) and anti-ALOX15 (Arachidonate 15-LipOXygenase, 1/200; monoclonal Santa Cruz) antibodies were used for M2-like macrophage markers. Primary antibodies were detected using Alexa fluor 488 or Alexa fluor 568-coupled secondary antibodies (1/500, Invitrogen). Nuclei were stained with 10 μl of ProLong Gold Antifade Mountant with DAPI (Molecular Probes). The same protocol was used for NOD/SCID mice except that mice were killed after 16 days after HCT116 cells injection. For the Balb/c model, mice were sacrificed at day […] (day 1 being the first day of treatment). […] Especially the pSTAT1 relative expression measured is about 1.5 for compound 33 compared to 1.0 for the control, the NOS2 relative expression measured is about 1 for compound 33 compared to 2.5 for the control (FIG. 8A) in CT-26-Balb/c mice model. The pSTAT1 relative expression measured is about 1.5 for compound 33 compared to 0 for the control and the NOS2 relative expression measured is about 20 for compound 33 compared to 2 for the control (FIG. 8B) in NOD/SCID mice model.

[2] = test system: HCT116 tumors; assay: Immunofluorescence of cleaved caspase-3 in HCT116 tumor slides (NOD/SCID); assay type: in vivo, human; details: NOD/SCID model
Description: FIG. 7C: Immunofluorescence assay of Cleaved caspase-3 (C3C) in HCT116 from NOD mice tumors treated with VEH (column on the left) or with compound 33 (column on the right). […] (Ordinate: Caspase-3 cleaved relative fluorescence in percentage). Statistical analysis has been performed by ANOVA (***=p=0.0003). Scale bar=50 μm.
Two different colorectal mouse models were used: a syngeneic model for which mouse colon cancer CT-26 cells were injected into Balb/c mice and a NOD/SCID model in which mice were implanted with human colorectal cancer HCT116 cells (FIG. 4 A-B). When the tumor reached a size of −2 mm, mice were treated intraperitoneally with the compound 33 at 5 mg/Kg (BALB/c n=11, NOD SCID n=6) or corn oil 5% DMSO (BALB/c n=10, NOD SCID n=6), every three days until the end of the experiment. The compound 33 was dissolved in DMSO, then diluted 20 times in corn oil (Sigma Aldrich-C8267) and sterilized by filtration with PTFE membrane Millex 0.2 μm (Millipore-SLFG025LS). Tumors were analyzed before reaching 2000 mm3. Treatment by compound 33 induces a decrease in tumor growth of 40% and 60% in the Balb/c and NOD mice, respectively (FIGS. 6A and 6B).

[3] = test system: DLBCL cell lines (HBL1, TMD8, U2932); assay: Viability of B-cell lymphoma cell lines, combination with Ibrutinib; assay type: cell-based, human; details: compound 33 at suboptimal 10 μM, Ibrutinib 0.01-100 nM
Description: FIG. 12: Viability of various B-cell lymphoma cell lines treated with a suboptimal concentration of compound 33 (i) alone or (ii) in combination with increasing concentrations of Ibrutinib.
Groups of bars, from the left to the right of FIG. 12: (i) HBL1 human diffuse large B-cell lymphoma cell line not treated with compound 33 and treated with and increasing concentrations of Ibrutinib, (ii) HBL1 human diffuse large B-cell lymphoma cell line treated with 10 μM of compound 33 and increasing concentrations of Ibrutinib, (iii) TMD8 human B cell lymphoma cell line not treated with compound 33 and treated with and increasing concentrations of Ibrutinib, (iv) TMD8 human B cell lymphoma cell line treated with 10 μM of compound 33 and increasing concentrations of Ibrutinib, (v) U2932 human diffuse large B-cell lymphoma cell line not treated with compound 33 and treated with and increasing concentrations of Ibrutinib, and (vi). U2932 human diffuse large B-cell lymphoma cell line treated with 10 μM of compound 33 and increasing concentrations of Ibrutinib.
In each group of bars, form the left to the right: (i) Control (0 nM), without treatment with Ibrutinib, (ii) Ibrutinib at 0.01 nM, (iii) Ibrutinib at 0.1 nM, (iv) Ibrutinib at 1 nM, (v) Ibrutinib at 10 nM, (vi) Ibrutinib at 100 nM.

[4] = test system: tumor-infiltrating macrophages; assay: Macrophage M1/M2-like markers in tumor slides, NOD/SCID HCT116 xenograft model; assay type: in vivo, mouse
Description: Statistical analysis has been performed by ANOVA (***=p=0.0019). FIG. 9B: M2-like markers pSTAT6 and ALOX15 were determined in tumor slides from NOD mice bearing HCT116 xenografts, treated or not with the compound 33 (related to formula (II)). Statistical analysis has been performed by ANOVA (***: p=0.0481). […] Anti-p-STAT1 (1/200; polyclonal, Cell Signaling), anti-SOCS1 (Suppressor of Cytokine Signaling protein 1, 1/200; polyclonal, Santa Cruz), and anti-NOS2 (Nitric Oxide Synthase 2, 1/200; polyclonal Santa Cruz) antibodies were used for M1-like macrophage markers. Anti-pSTAT6 (1/200; polyclonal Santa Cruz), anti-arginase-1 (1/200; polyclonal Santa Cruz) and anti-ALOX15 (Arachidonate 15-LipOXygenase, 1/200; monoclonal Santa Cruz) antibodies were used for M2-like macrophage markers. Primary antibodies were detected using Alexa fluor 488 or Alexa fluor 568-coupled secondary antibodies (1/500, Invitrogen). Nuclei were stained with 10 μl of ProLong Gold Antifade Mountant with DAPI (Molecular Probes). The same protocol was used for NOD/SCID mice except that mice were killed after 16 days after HCT116 cells injection. For the Balb/c model, mice were sacrificed at day 62 (day 1 being the first day of treatment). […] Especially the pSTAT1 relative expression measured is about 1.5 for compound 33 compared to 1.0 for the control, the NOS2 relative expression measured is about 1 for compound 33 compared to 2.5 for the control (FIG. 8A) in CT-26-Balb/c mice model. The pSTAT1 relative expression measured is about 1.5 for compound 33 compared to 0 for the control and the NOS2 relative expression measured is about 20 for compound 33 compared to 2 for the control (FIG. 8B) in NOD/SCID mice model.

[5] = CT-26-Balb/c model, control 1.0
[6] = NOD/SCID HCT116 model, control 1

COc1ccc(-c2ncc(-c3ncc(-c4cc(OC)c(OC)c(OC)c4)cc3/C=C/c3ccccc3)cc2C)cc1OC [compound 33, (E)-6′-(3,4-Dimethoxyphenyl)-5′-methyl-3-styryl-5-(3,4,5-trimethoxyphenyl)-2,3′-bipyridine]
SOCS1 expression (M1 marker) ([1]; Balb/c (syngeneic) model): increase | pSTAT1 relative expression (M1 marker) ([1]; CT-26-Balb/c model, 5 mg/Kg, control 1.0): about 1.5 | NOS2 relative expression (M1 marker) ([1]; CT-26-Balb/c model, 5 mg/Kg, control 2.5 as printed): about 1 | Arg1 relative expression (M2 marker) [1, 5]: about 0.5 | pSTAT6 relative expression (M2 marker) [1, 5]: about 0.5 | tumor cell apoptosis (cleaved caspase-3 staining) [2]: increase in tumor cell apoptosis | effect in combination with Ibrutinib on viability [3]: synergistic effect | SOCS1 expression (M1 marker) ([4]; NOD/SCID (xenograft) model): increase | pSTAT1 relative expression (M1 marker) ([4]; NOD/SCID HCT116 model, control 0): about 1.5 | ALOX15 relative expression (M2 marker) [4, 6]: about 0 | pSTAT6 relative expression (M2 marker) [4, 6]: about 0 | NOS2 relative expression (M1 marker) ([4]; NOD/SCID HCT116 model, control 2): about 20
